Experimental data published in paper PMC5090206, “Fluselenamyl: A Novel Benzoselenazole Derivative for PET Detection of Amyloid Plaques (Aβ) in Alzheimer’s Disease” (Scientific Reports, 2016).

Key:
Aβ plaques = Aβ plaques (Homo sapiens, UniProt P05067); assay: MicroPET/CT imaging in APP/PS1 and WT mice; format: in vivo; conditions: for distribution volume ratio (DVR): cortical ROI, cerebellum reference, RefLogan
Protocol: To directly access the potential of [^18F]-9 to bind Aβ plaques in vivo, we performed microPET/CT imaging in age-matched APP^+/−/PS1^+/− mice (n = 3) compared their WT counterparts, 5 min-2 h post tail-vein injection. […] Time activity curves (TAC) also indicated higher retention of activity within transgenic mice brains compared with their WT counterparts (Fig. 10). Additionally, ROI (cortical regions) were also analyzed using linearized method with a reference region (cerebellum) via Reference Logan plot (RefLogan), and distribution volume ratios (DVR) were obtained. The analysis indicated a statistically significant DVR value of 1.18 for transgenic mice brain compared with that of 1.03 for WT brains. These smaller differences in DVR values of targeted regions in transgenic mice compared with that of WT counterparts could also be attributed to a lack of true negative reference region in aged PS1/APP mice[57]. […] The differences between these tracers in this rodent model could be attributed to ability of [^18F]-9 for targeting both diffuse and fibrillary plaques. To further evaluate, whether or not [^18F]-9 offers significant advantage over other approved tracers, the agent would need to be further investigated for its performance in other AD rodent models (APP23 and Tg2576).
Scientific Reports Version of August 4, 2016 approved guidelines. 15-month-old APP+/-/PS1+/- mice were imaged using intravital multiphoton microscopy to assess pharmacokinetic profiles of the 5. The thinned-skull cranial windows were prepared on the day prior to imaging, as previously described16-18. Briefly, mice were anesthetized under volatile isoflurane (2% induction, 1.5% maintenance), the scalp and periosteum were removed to expose the skull.
A speed drill and microsurgical blade (Surgistar) were used to thin the skull until the skull window ([…]
For imaging 5 labeled plaques, two-photon fluorescence was generated with 800 nm excitation, and fluorescent emission was detected in the range of 435-485nm. […]

Aβ1–42 fibrils = target: T1, Aβ1–42 fibrils (Homo sapiens, UniProt P05067); assay: Saturation binding of [18F]-9 with Aβ1–42 fibrils
T1 construct: Commercially available amyloid peptide Aβ1-42; purchased
Protocol: For assessing the ability of [^18F]-9 to bind Aβ plaques; binding assays with either AD homogenates or preformed Aβ1–42 aggregates were performed in 30 mM Tris, pH 7.4 buffer supplemented with 0.1% BSA[39]. Nonspecific binding was determined in the presence of 5 (1 μM) as a competitor.
Scientific Reports Version of August 4, 2016
Binding assays were performed using previously described methods.11 Briefly, a fixed concentration (0.25 µM/well) of Aβ1–42 fibrils was incubated for 1 h at 37 °C with increasing concentrations of [18F]-9 (0.1 nM-15 nM) in 30 mM Tris-HCl pH 7.4, 0.1% BSA in a reaction volume of 150 µl. […] The exact hot:cold ([18F]-9 : 5) ratio was measured in each experiment by counting an aliquot of a sample (2 µl) of the radioligand preparation in a scintillation counter. Binding of [18F]-9 to human brain homogenates was assessed by incubating samples of insoluble fraction (1.25 µg insoluble protein/well) from AD subjects, with increasing concentrations of [18F]-9 (0.1nM-18 nM) for 1 h at 37 °C. Nonspecific binding was determined in parallel experiments in the presence of 5 (1 µM) as a competitor. […] Glass fiber filters containing the bound ligand were mixed with Optiphase Supermix scintillation cocktail (150µl; PerkinElmer) and counted immediately. […]
Bmax values were calculated in pmol/gram wet weight of brain tissue. […]

Aβ plaques, sequence (P05067 672-711 limits assumed): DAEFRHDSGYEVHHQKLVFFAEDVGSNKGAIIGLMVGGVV
T1 sequence (P05067 672-713 limits assumed): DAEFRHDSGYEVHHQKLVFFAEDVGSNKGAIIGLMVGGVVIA

CN(C)c1ncc(/C=C\c2nc3cc(OCC[18F])ccc3[se]2)cn1 [[^18F]-9]
higher retention in transgenic mice brains vs WT (Aβ plaques; APP+/−/PS1+/− vs WT mice, n = 3, p < 0.05): 1.2 folds | distribution volume ratio (DVR) (Aβ plaques; WT brains): 1.03 | distribution volume ratio (DVR) (Aβ plaques; transgenic mice brain): 1.18 | Bmax (Aβ1–42 fibrils): 1.3 pmol/nmol | Kd (Aβ1–42 fibrils; 30 mM Tris pH 7.4, 0.1% BSA, one-site model): 1.6 nM
